Data as given in BindingDB's records for doi:10.1021/jm00082a007 (J. Uriach & Cía., 1992).

What follows are molecules tested against Platelet-activating factor receptor (Oryctolagus cuniculus) (assay: In vitro inhibition of PAF induced aggregation of rabbit platelets.).
CCCCCCCCCCCCCCCCCCCCOC1CC(COC(=O)N(Cc2cccc[n+]2CC)C(C)=O)CO1 (stereo not given) was tested, and the IC50 was 40 nM. Work on C=CCCCCCCOCCCCCCOC1CC(COC(=O)N(Cc2cccc[n+]2CC)C(C)=O)CO1 (stereo not given) yielded an IC50 of 25 nM. In the case of CC[n+]1ccccc1CN(C(C)=O)C(=O)OCC1COC(OCCCCCCCCCCCCCCCCOC)C1 (stereo not given), the IC50 is reported as 2.1 nM. In the case of CC[n+]1ccccc1CN(C(C)=O)C(=O)OCC1COC(OCCCCCCOCCCCCc2ccccc2)C1 (stereo not given), the IC50 is reported as 15 nM. In the case of CC[n+]1ccccc1CN(C(C)=O)C(=O)OCC1COC(OCCCCCCOCCCc2ccccc2)C1 (stereo not given), the IC50 is reported as 51 nM. CC[n+]1ccccc1CN(C(C)=O)C(=O)OCC1COC(OCCCCCCOCc2ccc(-c3ccccc3)cc2)C1 (stereo not given) was tested, and the IC50 was 15 nM. In the case of CCCCCCCCCCCCCCCCOC1CC(COC(=O)N(Cc2cccc[n+]2CC)C(C)=O)CO1 (stereo not given), the IC50 is reported as 9.7 nM. CC[n+]1ccccc1CN(C(C)=O)C(=O)OCC1COC(OCCC(c2ccccc2)c2ccccc2)C1 (stereo not given) showed an IC50 of 260 nM. CC[n+]1ccccc1CN(C(C)=O)C(=O)OCC1COC(OCCCc2ccccc2)C1 (stereo not given) was tested, and the IC50 was 190 nM. CCOC1CC(COC(=O)N(Cc2cccc[n+]2CC)C(C)=O)CO1 (stereo not given) gave an IC50 of 2800 nM.
